Literature values as cited in patent publication US20070142460A1, “Compounds, compositions and methods” (priority 2003, published 2007).

System: A549 cells

SMILES	GI50 [nM]
O=c1[nH]cc(F)c(=O)[nH]1 [5-fluorouracil]	1000
COc1cccc2c1C(=O)c1c(O)c3c(c(O)c1C2=O)C[C@@](O)(C(=O)CO)C[C@@H]3O[C@H]1C[C@H](N)[C@H](O)[C@H](C)O1 [doxorubicin]	63
NC(=O)NO [hydroxyurea]	500000
CC(=O)O[C@H]1C(=O)[C@@]2(C)[C@H]([C@H](OC(=O)c3ccccc3)[C@]3(O)C[C@H](OC(=O)[C@H](O)[C@@H](NC(=O)c4ccccc4)c4ccccc4)C(C)=C1C3(C)C)[C@]1(OC(C)=O)CO[C@@H]1C[C@@H]2O [paclitaxel]	4
